Legend:
Type in all cases: cell-based, human
[1] = tested on: MCF-7 cells; test: Dose-response of signal transduction modulators on E2-induced cell proliferation, 3H-thymidine incorporation (Example 2)
Description: Dose-response of Signal Transduction Modulators on E2-Induced Cell Proliferation To determine the impact of two key signaling proteins, cAMP/PKA system and tyrosine kinase family member, c-Src kinase (p^src60) on estrogen-induced cell proliferation in human epithelial breast cancer cells, MCF-7 cells were cultured in growth DMEM medium supplemented with 10% fetal bovine serum (FBS). At 85% confluence, cells were sub-cultured in 5% FBS serum stripped medium, phenol red free for 24 hours prior to the treatment of the test chemical. […] Tamoxifen (TX) was used in parallel as positive control. Cell proliferation was measured using ^3H-thymidine incorporation. The study was done in triplicate and a control was used with solvent only. Control received solvent only at <0.1% ethanol.

[2] = tested on: MCF-7 cells; test: Effect of FK or GM on TX efficacy against E2-induced cell proliferation, 3H-thymidine incorporation (Example 3)
Description: In another experiment cells were treated with 10 nM E2 (=2.7 ng E2/ml) with three concentraion of GM (1, 5 and 10 ng/ml) 24 hours prior to cell proliferation assessment. Tamoxifen (TX) was used in parallel as positive control. Cell proliferation was measured using ^3H-thymidine incorporation. The study was done in triplicate and a control was used with solvent only. Control received solvent only at <0.1% ethanol.

[3] = tested on: MCF-7 cells; test: Cell growth without E2, 5 days, cell count using trypan blue exclusion (Examples 5-7); conditions: mixtures with TX; conclusion from the Examples, FIGS. 6-9
Description: MCF-7 cells were cultured in growth DMEM medium supplemented with 10% fetal bovine serum (FBS). At 85% confluence, cells were sub-cultured in 5% FBS serum stripped medium, phenol red free for 24 hours prior to the treatment of the test chemical. Cells were treated with and without a mixture of either 5 μM FK […] and 1 μM TX (=0.56 ug TX/ml) or a mixture of 1 μM TX (=0.56 ug TX/ml) and 1 μM FK. Cell growth was measured 5 days following treatment. Cell growth was determined by cell count using trypan blue exclusion. The study was done in duplicate and a control was used with solvent only. Control received solvent only at <0.1% ethanol.
MCF-7 cells were cultured in growth DMEM medium supplemented with 10% fetal bovine serum (FBS). At 85% confluence, cells were sub-cultured in 5% FBS serum stripped medium, phenol red free for 24 hours prior to the treatment of the test chemical. Cells were treated with and without a mixture of either 5 ng GM/ml and 5 μM TX (=2.8 ug TX/ml) or a mixture of 10 ng GM/ml and 5 μM TX (=2.8 ug TX/ml). Cell growth was measured 5 days following treatment. Cell growth was determined by cell count using trypan blue exclusion. […]
MCF-7 cells were cultured in growth DMEM medium supplemented with 10% fetal bovine serum (FBS). […] Cell growth was measured 5 days following treatment. Cell growth was determined by cell count using trypan blue exclusion. […]

[4] = tested on: MCF-7 cells; test: Dose-response of tamoxifen on E2-induced cell proliferation, 3H-thymidine incorporation (Example 1)
Description: Dose-Response of Tamoxifen on Estrogen (E2)-Induced Cell Proliferation MCF-7 cells were cultured in growth DMEM medium supplemented with 10% fetal bovine serum (FBS). […] […] Cell proliferation was measured using ^3H-thymidine incorporation. The study was done in triplicate and a control was used with solvent only. Control received solvent only at <0.1% ethanol.
In Table 1, percentage of control is calculated either based on the control (solvent only, ethanol 0.1%) or based on the E2 values which is between parenthesis.

[5] = tested on: MCF-7 cells; test: Time-course of E2-induced cell growth, cell count using trypan blue exclusion (Example 4); conditions: TX 1 μM alone + E2 10 nM; calculated on control value, FIG. 4
Description: Effect of cAMP Inducer on Efficacy and Stability of Tamoxifen MCF-7 cells were cultured in growth DMEM medium supplemented with 10% fetal bovine serum (FBS). At 85% confluence, cells were sub-cultured in 5% FBS serum stripped medium, phenol red free for 24 hours prior to the treatment of the test chemical. Cells were treated with 10 nM E2 (=2.7 ng E2/ml) with and without a mixture of 1 μM FK and 1 μM TX. Cell growth was measured 1, 2 and 5 days following treatment. Cell growth was determined by cell count using trypan blue exclusion. The study was done in duplicate and a control was used with solvent only. Control received solvent only at <. 1% ethanol.

[6] = TX 5 μM + E2 10 nM, based on solvent control
[7] = TX 5 μM + E2 10 nM, value in parenthesis, based on E2 value
[8] = TX 10 μM + E2 10 nM, based on solvent control

C=C[C@@]1(C)CC(=O)[C@]2(O)[C@@]3(C)[C@@H](O)CCC(C)(C)[C@@H]3[C@H](O)[C@H](OC(C)=O)[C@@]2(C)O1 [FK, forskolin]
% protection ([1]; FK 1 μM in the presence of 10 nM E2): 66% | % protection ([1]; FK 5 μM in the presence of 10 nM E2): 78% | % protection ([1]; FK 10 μM in the presence of 10 nM E2): 86% | activity at 1 µM ([1]; Homo sapiens, MCF7, FK 1 μM in the presence of 10 nM E2, read-out: 3H-Thymidine incorporation/μg protein (% of control)): 34% | activity at 5 µM ([1]; Homo sapiens, MCF7, FK 5 μM in the presence of 10 nM E2, read-out: 3H-Thymidine incorporation/μg protein (% of control)): 22% | activity at 10 µM ([1]; Homo sapiens, MCF7, FK 10 μM in the presence of 10 nM E2, read-out: 3H-Thymidine incorporation/μg protein (% of control)): 14%

COC1=C2C[C@@H](C)C[C@H](OC)[C@H](O)[C@@H](C)/C=C(\C)[C@H](OC(N)=O)[C@@H](OC)/C=C\C=C(/C)C(=O)NC(=CC1=O)C2=O [GM, geldanamycin]
3H-Thymidine incorporation/μg protein (% of control) ([1]; GM 1 ng/ml in the presence of 10 nM E2): no effect | 3H-Thymidine incorporation/μg protein (% of control) ([1]; GM 5 ng/ml in the presence of 10 nM E2): no effect | inhibition of the E2-induced cell proliferation ([1]; GM 10 ng/ml): did not inhibit | % protection ([1]; GM 10 ng/ml in the presence of 10 nM E2): 6% | activity at 0.01 µg/mL ([1]; Homo sapiens, MCF7, GM 10 ng/ml in the presence of 10 nM E2, read-out: 3H-Thymidine incorporation/μg protein (% of control)): 94% | activity at 0.001 µg/mL ([2]; Homo sapiens, MCF7, Table 4: GM 1 ng/ml, E2 10 nM = 100, read-out: 3H-Thymidine incorporation/μg protein (% of control)): 100% | activity at 0.005 µg/mL ([2]; Homo sapiens, MCF7, Table 4: GM 5 ng/ml, E2 10 nM = 100, read-out: 3H-Thymidine incorporation/μg protein (% of control)): 100% | activity at 0.01 µg/mL ([2]; Homo sapiens, MCF7, Table 4: GM 10 ng/ml, E2 10 nM = 100, read-out: 3H-Thymidine incorporation/μg protein (% of control)): 90% | % protection ([2]; Table 4: GM 1 ng/ml, E2 10 nM = 100): 0% | % protection ([2]; Table 4: GM 5 ng/ml, E2 10 nM = 100): 0% | % protection ([2]; Table 4: GM 10 ng/ml, E2 10 nM = 100): 10%

COc1cccc(-c2cc(=O)c3ccccc3o2)c1N [PD98059]
synergy with the anticancer activity of tamoxifen in breast cancer cells [3]: synergize the anticancer activity of tamoxifen

CC/C(=C(\c1ccccc1)c1ccc(OCCN(C)C)cc1)c1ccccc1 [TX, tamoxifen]
activity at 1 µM ([4]; Homo sapiens, MCF7, TX 1 μM, without E2, based on solvent control): 42% | activity at 5 µM ([4]; Homo sapiens, MCF7, TX 5 μM, without E2, based on solvent control): 36% | activity at 10 µM ([4]; Homo sapiens, MCF7, TX 10 μM, without E2, based on solvent control): 33% | 3H-thymidine incorporation dpm ([4]; TX 1 μM + E2 10 nM): 12336 dpm | 3H-thymidine incorporation dpm/μg protein ([4]; TX 1 μM + E2 10 nM): 379.6 dpm/μg protein | 3H-thymidine incorporation % of control ([4]; TX 1 μM + E2 10 nM, based on solvent control): 124% | % protection (based on E2 value) ([4]; TX 1 μM + E2 10 nM, value in parenthesis, based on E2 value): (21) % | 3H-thymidine incorporation dpm ([4]; TX 1 μM, without E2): 2586 dpm | 3H-thymidine incorporation dpm/μg protein ([4]; TX 1 μM, without E2): 129.3 dpm/μg protein | % protection ([4]; TX 1 μM, without E2): 58% | 3H-thymidine incorporation dpm ([4]; TX 5 μM + E2 10 nM): 4007 dpm | 3H-thymidine incorporation dpm/μg protein ([4]; TX 5 μM + E2 10 nM): 260.2 dpm/μg protein | 3H-thymidine incorporation % of control [4, 6]: 85% | % protection [4, 6]: 15% | 3H-thymidine incorporation % of control (based on E2 value) [4, 7]: 53% | % protection (based on E2 value) [4, 7]: 47% | 3H-thymidine incorporation dpm ([4]; TX 5 μM, without E2): 1848 dpm | 3H-thymidine incorporation dpm/μg protein ([4]; TX 5 μM, without E2): 112.0 dpm/μg protein | % protection ([4]; TX 5 μM, without E2): 64% | 3H-thymidine incorporation dpm ([4]; TX 10 μM + E2 10 nM): 3239 dpm | 3H-thymidine incorporation dpm/μg protein ([4]; TX 10 μM + E2 10 nM): 118.5 dpm/μg protein | 3H-thymidine incorporation % of control [4, 8]: 39% | % protection [4, 8]: 61% | % protection (based on E2 value) ([4]; TX 10 μM + E2 10 nM, value in parenthesis, based on E2 value): 75% | 3H-thymidine incorporation dpm ([4]; TX 10 μM, without E2): 1545 dpm | 3H-thymidine incorporation dpm/μg protein ([4]; TX 10 μM, without E2): 99.8 dpm/μg protein | % protection ([4]; TX 10 μM, without E2): 67% | antagonistic action against the E2-induced cell proliferation ([4]; TX 1-10 μM, Table 1): dose-dependent | potency against the E2-induced cell proliferation ([4]; low concentrations 0.56 ug/ml to 2.8 ug/ml (=1 - 5 μM)): potent | antiestrogenic action ([1]; 1-10 μM, Table 2): dose-dependent | activity at 1 µM ([1]; Homo sapiens, MCF7, TX 1 μM in the presence of 10 nM E2, read-out: 3H-Thymidine incorporation/μg protein (% of control)): 79% | activity at 5 µM ([1]; Homo sapiens, MCF7, TX 5 μM in the presence of 10 nM E2, read-out: 3H-Thymidine incorporation/μg protein (% of control)): 54% | activity at 10 µM ([1]; Homo sapiens, MCF7, TX 10 μM in the presence of 10 nM E2, read-out: 3H-Thymidine incorporation/μg protein (% of control)): 25% | % protection ([1]; TX 1 μM in the presence of 10 nM E2): 21% | % protection ([1]; TX 5 μM in the presence of 10 nM E2): 46% | % protection ([1]; TX 10 μM in the presence of 10 nM E2): 75% | protection against the biological activity of E2 ([2]; 1 μM TX alone, FIG. 2): ~25% | protection against the E2-induced cancer cell growth ([2]; 5 μM TX alone, FIG. 2): 45% | activity at 5 µM ([2]; Homo sapiens, MCF7, Table 4: 5 μM TX + E2, E2 10 nM = 100, read-out: 3H-Thymidine incorporation/μg protein (% of control)): 54% | % protection ([2]; Table 4: 5 μM TX + E2 (TX alone)): 46% | time over which the E2 action is antagonized [5]: up to 48 hr
